# According to US20250381254A1, “Augmented Acid Alpha-Glucosidase For The Treatment Of Pompe Disease” (Amicus Therapeutics, Inc., priority 2015, published 2025):
# Like-named read-outs stand apart in the source and are kept apart here.
# Experiments:
# [1] = Population PK model of miglustat, oral dosing in Gaa knockout mice; type: in vivo, mouse; settings: typical value
# Description: A population PK model of miglustat is constructed based on oral dosing in Gaa knockout (KO) mice. The model has a residual additive error of 0.475 ng/m L.
# [2] = Model-derived miglustat/ATB200 steady state exposure (AUC) ratio; parameters: species or system mouse; settings: 10 mg/kg miglustat co-administered with 20 mg/kg ATB200
# Description: Pharmacokinetic models (Example 8) are used to predict exposure to acid α-glucosidase and miglustat, time-matched to the values for tissue lysosomal glycogen levels in Table 5.
# [3] = target: acid α-glucosidase (Homo sapiens, UniProt P10253); experiment: Inhibition of acid α-glucosidase activity; type: biochemical
# Description: Pharmacokinetic models (Example 8) were used to predict the length of time that the plasma or tissue concentrations of duvoglustat (a surrogate of miglustat) would remain above the IC50 (the concentration giving 50% of maximum inhibition of acid α-glucosidase activity) of miglustat in plasma and lysosome. Inhibition of acid α-glucosidase activity is determined by methods described previously (Flanagan J J, Rossi B, Tang K, Wu X, Mascioli K, et al. (2009) “The pharmacological chaperone 1-deoxynojirimycin increases the activity and lysosomal trafficking of multiple mutant forms of acid alpha-glucosidase.” Hum Mutat 30: 1683-1692).
# [4] = in vivo; settings: both, Cambodian origin, cynomolgus monkey, in vivo
# Description: Animals were acclimated to the study room for 18 (females) to 19 (males) days. On the final day of acclimation, animals weighed between 2.243 kg and 5.413 kg and were 2 to 3 years of age.
# ATB200 is formulated in 25 mM sodium phosphate buffer, pH 6 containing 2.92 mg/mL sodium chloride, 20 mg/mL mannitol, and 0.5 mg/mL polysorbate 80 (formulation buffer). Test article (ATB200 or miglustat) and control article/vehicle (formulation buffer) were administered once every other week for 13 weeks, starting on Day 1 and ending on Day 85. ATB200 and the control article/vehicle were administered by 2 hour (±10 minute) intravenous (IV) infusion at 0 mg/kg (Group 1, control article), 50 mg/kg (Group 2), or 100 mg/kg (Groups 3 and 5). Miglustat was administered nasogastrically in sterile water for injection, USP, at 25 mg/kg (Group 2) or 175 mg/kg (Groups 3 and 4), 30 minutes (±2 minutes) prior to the start of the infusion for ATB200, when given in combination. The dosing volume across all groups was 10 mL/kg.
# Parameters assessed during the in-life phase of the study included body weights, food consumption, clinical observations, detailed clinical observations, physical examinations, electrocardiography, ophthalmic assessments, clinical pathology (hematology, coagulation, serum chemistry), anti-drug antibody (ADA) assessment, neutralizing ADA assessment, urinalysis, and plasma toxicokinetics (TK) for miglustat and ATB200 activity and total protein. Terminal necropsy of animals was performed on Day 99 (14 days after the last dose administration). At necropsy, gross observations and organ weights were recorded, and tissues were collected for microscopic examination.
# [5] = Clinical study: plasma miglustat PK; type: in vivo, human; settings: for AUC0-∞/BW (geometric mean) / CL/F (arithmetic mean) / Cmax/BW (geometric mean) / βt1/2 (arithmetic mean) / AUC(0-t) / AUC(0-inf) / Cmax / Vd/F / Tmax: with 20 mg/kg ATB200; for AUC(0-t) / AUC(0-inf) / Cmax / Vd/F / Tmax: human, plasma, 20 mg/kg; for AUC(0-t): read-out: AUC0-t (geometric mean); for AUC(0-inf): read-out: AUC0-∞ (geometric mean); for Cmax: read-out: Cmax (geometric mean); for Vd/F: read-out: Vz/F (arithmetic mean); for Tmax: read-out: tmax (median)
# Description: The study will be conducted in 2 stages.
# • Safety: review of AEs, including SAEs and IARs; review of concomitant medications and nondrug therapies; vital signs (HR, RR, BP, and temperature); weight; PE; ECG; clinical safety laboratory assessments (serum chemistry, hematology, and urinalysis); and urine pregnancy test • PD: urinary Hex4 and serum CPK • Immunological: blood samples for anti-recombinant acid α-glucosidase antibody titers (anti-recombinant acid α-glucosidase total and neutralizing antibody titers, and antibody cross-reactivity with alglucosidase alfa) and blood samples for measurement of pro-inflammatory cytokines and other biomarkers of immune system activation. If needed, IgE measurements will also be performed. • Serial 24-hour PK: During Period 4 (Visit 6, Day 43 and Visit 8, Day 71) and Period 5 (Visit 9, Day 85 and Visit 11, Day 113), blood sampling for plasma acid α-glucosidase activity levels, total acid α-glucosidase protein concentrations, and miglustat concentrations will be taken for all subjects.
# In Tables 12-15 and FIGS. 24-26, the single dose (SD) measurements were taken after a single administration of miglustat and ATB200, and the multiple dose (MD) measurements were taken after the third biweekly administration of miglustat and ATB200.
# [6] = Previous studies in non-human primates (exposure); settings: in vivo, po, 175 mg/kg
# [7] = 130 mg miglustat, multiple dose
# [8] = oral, 130 mg miglustat, multiple dose
# [9] = oral, 130 mg miglustat, single dose
# [10] = oral, 260 mg miglustat, single dose
smiles,measurement,setting,value
"CCCCN1C[C@H](O)[C@@H](O)[C@H](O)[C@H]1CO [miglustat, (2R,3R,4R,5S)-1-butyl-2-(hydroxymethyl)piperidine-3,4,5-triol]",Central volume of distribution (Vc),[1],4.55 mL
same,Peripheral clearance (CLd),[1],4.57 mL/h
same,Peripheral volume of distribution (V2),[1],19.6 mL
same,Rate constant of absorption (Ka),[1],2.09 h⁻¹
same,Systemic clearance (CL),[1],43.3 mL/h
same,miglustat/ATB200 AUC ratio,[2],0.01159
same,"IC50, inhibition of acid α-glucosidase activity",[3]; pH of plasma (pH 7.0),0.17 µg/mL
same,IC50,[3]; pH of the lysosomal compartment (pH 5.2),1.72 µM
same,NOAEL at 13 weeks,[4],175 mg/kg
same,dose proportionality of kinetics,[5]; 130 mg and 260 mg,dose-proportional kinetics
same,AUC0-∞/BW (geometric mean),[5]; [7],142 ng·h/mL/kg
same,CL/F (arithmetic mean),[5]; [7],10.8 L/h
same,Cmax/BW (geometric mean),[5]; [7],16.3 ng/mL/kg
same,βt1/2 (arithmetic mean),[5]; [7],5.6 h
same,AUC0-∞/BW (geometric mean),"[5]; 130 mg miglustat, single dose",154 ng·h/mL/kg
same,CL/F (arithmetic mean),"[5]; 130 mg miglustat, single dose",9.93 L/h
same,Cmax/BW (geometric mean),"[5]; 130 mg miglustat, single dose",19.2 ng/mL/kg
same,βt1/2 (arithmetic mean),"[5]; 130 mg miglustat, single dose",4.5 h
same,AUC0-∞/BW (geometric mean),"[5]; 260 mg miglustat, single dose",325 ng·h/mL/kg
same,CL/F (arithmetic mean),"[5]; 260 mg miglustat, single dose",9.51 L/h
same,Cmax/BW (geometric mean),"[5]; 260 mg miglustat, single dose",41.5 ng/mL/kg
same,βt1/2 (arithmetic mean),"[5]; 260 mg miglustat, single dose",5.5 h
same,AUC(0-t),[5]; [8],11500 ng·h/mL
same,AUC(0-inf),[5]; [8],12200 ng·h/mL
same,Cmax,[5]; [8],1390 ng/mL
same,Vd/F,[5]; [8],88.1 L
same,Tmax,[5]; [8],3 h
same,AUC(0-t),[5]; [9],12600 ng·h/mL
same,AUC(0-inf),[5]; [9],13200 ng·h/mL
same,Cmax,[5]; [9],1650 ng/mL
same,Vd/F,[5]; [9],65.4 L
same,Tmax,[5]; [9],2.75 h
same,AUC(0-t),[5]; [10],26600 ng·h/mL
same,AUC(0-inf),[5]; [10],28000 ng·h/mL
same,Cmax,[5]; [10],3550 ng/mL
same,Vd/F,[5]; [10],79.2 L
same,Tmax,[5]; [10],2.75 h
same,time of peak plasma concentrations into the ATB200 infusion,"[5]; oral, 1 hour prior to ATB200 infusion",2 h
same,AUC,[6],196000 ng·h/mL
